Results published in US20040072746A1, “Inhibitors of monocarboxylate transport” (priority 2001, published 2004).
pIC50: −log10 of the molar value. Like-named read-outs stand apart in the source and are kept apart here.

Assays:
Splenic B-lymphocytes = assay: Inhibition of B-lymphocyte proliferation; type: cell-based, Balb/c mice; conditions: 48 hours
Method: Splenic B-lymphocytes were obtained from Balb/c mice by disruption of the spleen through a nylon sieve. The resultant cellular suspension was washed three times by centrifugation. The spleen cells were then plated out in flat-bottomed 96 well microtitre plates at a concentration of 2-4×10^5 cells per well. B-lymphocyte stimulators were added with or without compound. Stimulators employed were lipopolysaccharide (LPS) at 50 μg/ml, 8-mercaptoguanosine (8MG) at 100 μg/ml, or goat anti mouse IgM at 40 μg/ml. […] The cultures were incubated for 48 hours at 37° C. and pulsed with tritiated thymidine for the final 6 hours. The cells were harvested as described previously and thymidine uptake used as a measure of DNA synthesis.

activated T-lymphocytes [1] = assay: Extracellular lactate levels in activated T-lymphocytes (lactate oxidase); type: cell-based, human; conditions: Homo sapiens, T-lymphocyte; Mean±s.e.mean (mean±range for n=2); read-out: pIA50 Extracellular Lactate (converted)
Method: (§1) PBMCs were prepared as described above by separation over Lymphoprep and T-lymphocytes were then enriched by purification on a nylon wool column. Briefly, 0.6 g nylon wool was inserted into a 10 ml syringe and this was autoclaved. […] The PBMC were resuspended in 1 ml of pre-warmed RPMI (20% HS) and were loaded onto the nylon wool column. The column was incubated for 45 min at 37° C. followed by elution of the T-cells by adding 10 ml RPMI (20% HS) (prewarmed to 37° C.) dropwise to the column. The T-cells obtained from the elution of the column were centrifuged (850 g for 5 min) and resuspended in RPMI containing L-glutamine and 5% human serum and stimulated with 0.5 ng/ml PMA and 500 ng/ml lonomycin for 48 h.
20 μl of each concentration were added to triplicate wells of a 96-well plate. T-cells were then added (200 μl per well, 2×10^5 cells) and were cultured for 4 h under standard cell culture conditions. The cell supernatants were collected from each well after the cells were pelleted by centrifugation of the plate at 850 g for 5 min at 4° C. 10 μl of each supernatant sample were used for the lactate determination.
(§2) The assay was carried out in 96-well plates at room temperature. 10 μl of standard or sample were added to each well followed by 200 μl of the Lactate Reagent. […] The data were collected and analysed using SOFTmax PRO software (Molecular Devices).

activated T-lymphocytes [2] = assay: DNA synthesis ([3H]-thymidine incorporation) in activated T-lymphocytes; type: cell-based; conditions: Homo sapiens, T-lymphocyte; Mean±s.e.mean (mean±range for n=2); read-out: pIA50 DNA (converted)
Method: as §1
DNA synthesis was assessed by measuring the incorporation of [^3H]-thymidine. The assay was carried out in a 96-well plate. 20 μl of test compounds at 10× the final concentration were added to the plate followed by 200 μl of T-cells per well (2×10^5 cells). The cells were cultured for 4 h under standard cell culture conditions and cultures were pulsed with ^3H-thymidine (0.5 μCi/well; Amersham) for the final hour of the incubation.

activated T-lymphocytes [3] = assay: Intracellular lactate levels in activated T-lymphocytes (lactate oxidase); type: cell-based; conditions: Homo sapiens, T-lymphocyte; Mean±s.e.mean (mean±range for n=2); read-out: pIA50 Intracellular Lactate (converted)
Method: as §1
100 μl of each concentration were added to triplicate wells of a 24-well plate. T-cells were then added (1 ml per well) and were cultured for 4 h under standard cell culture conditions. The cells were then transferred from each well to microfuge tubes and were centrifuged at 360 g for 5 min at 4° C. The supernatant was discarded and the cell pellet was resuspended in 1 ml of ice-cold PBS, pH5.0. The cells were washed twice in PBS by centrifugation (360 g, 5 min, 4° C.) followed by resuspension of the cell pellet in 100 μl deionized water. The cells were incubated for 15 min at 4° C. to allow cell lysis to occur and the cell debris was removed by centrifugation at 15000 g for 10 min at 4° C. 10 μl of each supernatant sample were used for the lactate determination.
as §2

[4] = tested on: peripheral blood mononuclear cells (PBMC); assay: T-lymphocyte proliferation, PMA/ionomycin stimulated PBMC, 3 days; conditions: Homo sapiens, 72 h, read-out: pIA50 Proliferation (3 days) (converted)
Source text: The cell signalling pathways triggered by T-cell activation through the T cell receptor and CD28 can be mimicked in vitro using a phorbol ester, phorbol 12-myristate 13-acetate (PMA), which activates protein kinase C, and ionomycin, which induces calcium release from internal cellular stores. PMA and ionomycin-stimulated proliferation of peripheral blood mononuclear cells (PBMC), of which the predominant cell type is T-lymphocytes, provides a suitable assay for measuring the ability of small molecules to block T-cell proliferation.
Blood was centrifuged at 850 g for 10 minutes and the plasma was removed. […] The blood/Lymphoprep layers were centrifuged at 850 g for 20 minutes at 18° C. (with no brake).
10 μl of compound in solution was then added to the 96-well flat bottom assay plate (final volume of 200 μl). […] Both were diluted to 4× the final assay concentration in complete medium. 50 μl of each reagent was dispensed per well to give a final assay concentration of 0.5 ng/ml PMA and 500 ng/ml ionomycin. Control wells received 100 μl cells with PMA only (negative control 1), with ionomycin only (negative control 2) and 100 μl cells with 50 μl PMA and 50 μl ionomycin with no test compound (positive control). 100 μl complete medium was added to the negative controls. […]

human MCT1 = biological target: T1, human MCT1 (Homo sapiens, UniProt P53985, D490E); assay: Lactate uptake by change in intracellular pH (BCECF) in INS-1 cells expressing MCT; type: cell-based; conditions: 100 nM, INS-1 cells expressing human MCT1, n=2
T1 sequence (P53985 1-500 D490E): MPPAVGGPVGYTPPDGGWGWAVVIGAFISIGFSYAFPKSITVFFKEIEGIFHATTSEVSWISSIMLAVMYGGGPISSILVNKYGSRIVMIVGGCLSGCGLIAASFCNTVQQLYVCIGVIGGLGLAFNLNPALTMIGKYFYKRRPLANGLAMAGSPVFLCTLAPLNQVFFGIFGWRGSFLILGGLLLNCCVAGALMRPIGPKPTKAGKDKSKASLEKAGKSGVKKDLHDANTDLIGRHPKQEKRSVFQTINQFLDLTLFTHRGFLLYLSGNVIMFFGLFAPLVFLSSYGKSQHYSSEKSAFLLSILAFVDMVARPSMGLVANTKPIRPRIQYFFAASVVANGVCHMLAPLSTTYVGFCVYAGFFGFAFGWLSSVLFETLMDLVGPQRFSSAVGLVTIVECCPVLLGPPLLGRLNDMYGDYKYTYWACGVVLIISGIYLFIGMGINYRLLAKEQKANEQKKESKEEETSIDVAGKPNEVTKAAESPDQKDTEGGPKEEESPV
T1 sequence (P26453 142-388 partner limits assumed): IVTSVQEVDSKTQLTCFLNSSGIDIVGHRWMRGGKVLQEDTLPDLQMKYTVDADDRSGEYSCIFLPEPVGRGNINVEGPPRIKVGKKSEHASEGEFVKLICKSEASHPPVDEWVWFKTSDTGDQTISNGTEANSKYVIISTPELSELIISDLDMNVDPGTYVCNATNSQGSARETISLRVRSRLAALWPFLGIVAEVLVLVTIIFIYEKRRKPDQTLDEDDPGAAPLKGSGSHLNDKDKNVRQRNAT

MDA-MB-231 cell line = assay: Filter binding of 3H-ligand C to MDA-MB-231 cells; set-up: species or system human; conditions: untransfected MDA-MB-231
Method: The human breast cell line MDA-MB-231 had been previously identified as expressing low levels of MCT1 (Garcia et al., Cell. 76:865-873, 1994). The MDA-MB-231 cell line was grown. […] The cells were grown and transfected with pcDNA3-hMCT1. An increase in filter binding of ^3H-ligand C was consistently measured for transiently transfected cells when compared with control cells transfected with empty vector.

[5] = MCT filter binding assay, yeast membranes transformed with vector only; conditions: ~2.5 nM radioligand
Method: (§3) For yeast cells transformed with expression plasmids containing the human MCT 1-4 ORFs the ability of membrane preparations to bind radioligand was determined using a single ligand concentration/multi protein concentration binding assay. This generated an estimate of the amount of active binding protein present in each membrane preparation. The ligand concentration used will give an estimate of Bmax that is approximately 90% of the true value. 10 μl of ligand A, B or C that had been diluted 50 fold with assay buffer (50 mM HEPES, 0.1 mM EDTA, 0.15 M NaCl, pH 7.5, 0.5% BSA) was dispensed into wells of a polypropylene microtitre plate. This gives a final radiolabelled ligand concentration of ˜2.5 nM. […] The membranes were diluted to give a known amount/180 μl assay buffer. This is typically in the […] range. For the membranes with high binding site number a more dilute membrane preparation should be added. 180 μl of each membrane solution was then added to each well and incubated at 2 hours at room temperature with shaking. The membranes were harvested onto GF-B filter plates and washed with assay buffer without BSA, dried, scintillant added and counts detected using the relevant program for each ligand on a Packard Top Count plate reader.

human MCT2 = biological target: T2, human MCT2 (Homo sapiens, UniProt O60669); assay: MCT filter binding assay, yeast membranes, radioligand specific binding; conditions: ~2.5 nM radioligand
T2 construct: The full length open reading frame for human MCT2 was then subcloned into the S. cerevisiae expression plasmid, pACES14; made in house; host or cells: Saccharomyces cerevisiae BY4742 (jen1 deletion), membrane preparation; plasmid pACES14-hMCT2
T2 sequence (O60669 1-478): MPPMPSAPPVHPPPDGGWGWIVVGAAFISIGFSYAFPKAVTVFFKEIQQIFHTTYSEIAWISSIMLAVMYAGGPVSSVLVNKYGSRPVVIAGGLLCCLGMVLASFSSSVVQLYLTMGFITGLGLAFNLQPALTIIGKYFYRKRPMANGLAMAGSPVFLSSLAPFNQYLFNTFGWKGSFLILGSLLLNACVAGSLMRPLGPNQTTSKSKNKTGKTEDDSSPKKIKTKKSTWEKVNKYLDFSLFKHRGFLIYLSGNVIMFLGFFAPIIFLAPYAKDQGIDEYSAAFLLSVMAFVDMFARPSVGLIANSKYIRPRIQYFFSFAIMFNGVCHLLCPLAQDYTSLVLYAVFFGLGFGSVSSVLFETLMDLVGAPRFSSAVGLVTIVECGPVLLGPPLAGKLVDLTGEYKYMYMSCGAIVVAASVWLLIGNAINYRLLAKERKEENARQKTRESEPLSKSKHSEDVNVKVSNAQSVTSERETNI
Method: as §3

human MCT4 = biological target: T3, human MCT4 (Homo sapiens, UniProt O15427); assay: as above; conditions: ~2.5 nM radioligand
T3 construct: from the full length copy and subcloned into the S. cerevisiae expression plasmid pACES14; made in house; host or cells: Saccharomyces cerevisiae BY4742 (jen1 deletion), membrane preparation; plasmid pACES14-hMCT4
T3 sequence (O15427 1-465): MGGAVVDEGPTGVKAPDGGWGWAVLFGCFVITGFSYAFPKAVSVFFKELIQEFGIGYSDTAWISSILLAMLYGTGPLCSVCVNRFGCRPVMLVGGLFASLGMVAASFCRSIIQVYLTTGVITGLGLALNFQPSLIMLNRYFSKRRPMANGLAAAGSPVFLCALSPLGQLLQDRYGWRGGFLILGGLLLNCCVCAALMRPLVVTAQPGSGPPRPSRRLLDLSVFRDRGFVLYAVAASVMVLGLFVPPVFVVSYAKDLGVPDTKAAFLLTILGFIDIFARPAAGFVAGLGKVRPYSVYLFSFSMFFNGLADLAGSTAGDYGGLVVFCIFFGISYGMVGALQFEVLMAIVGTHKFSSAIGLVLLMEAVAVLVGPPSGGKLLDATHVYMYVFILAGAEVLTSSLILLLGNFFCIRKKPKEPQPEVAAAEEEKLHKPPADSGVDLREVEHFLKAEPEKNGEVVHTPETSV
Method: as §3

human MCT3 = biological target: T4, human MCT3 (Homo sapiens, UniProt O95907); assay: as above; conditions: ~2.5 nM radioligand
T4 construct: the full length open reading frame of human MCT3 was subcloned into the S. cerevisiae expression plasmid pACES14; made in house; host or cells: Saccharomyces cerevisiae BY4742 (jen1 deletion), membrane preparation; plasmid pACES14-hMCT3
T4 sequence (O95907 1-504): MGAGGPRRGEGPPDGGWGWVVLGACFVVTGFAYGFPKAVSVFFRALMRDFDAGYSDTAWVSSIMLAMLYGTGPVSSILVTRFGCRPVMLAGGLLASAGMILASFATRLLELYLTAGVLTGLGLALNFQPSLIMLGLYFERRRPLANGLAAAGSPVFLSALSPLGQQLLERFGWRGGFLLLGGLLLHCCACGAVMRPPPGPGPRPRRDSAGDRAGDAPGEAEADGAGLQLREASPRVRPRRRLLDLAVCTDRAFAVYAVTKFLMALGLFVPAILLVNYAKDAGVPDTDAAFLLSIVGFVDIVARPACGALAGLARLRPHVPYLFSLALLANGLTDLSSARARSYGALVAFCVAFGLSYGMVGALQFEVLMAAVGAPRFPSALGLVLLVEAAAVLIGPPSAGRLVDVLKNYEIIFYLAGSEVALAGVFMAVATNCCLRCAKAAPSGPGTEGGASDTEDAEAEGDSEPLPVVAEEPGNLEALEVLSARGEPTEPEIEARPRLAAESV
Method: as §3

MCT1 = biological target: T5, MCT1 (Homo sapiens, UniProt P53985, D490E); assay: as above; set-up: made in house; host or cells: Saccharomyces cerevisiae BY4742 (jen1 deletion), membrane preparation; plasmid pACES14-hMCT1; conditions: ~2.5 nM radioligand
T5 sequence (P53985 1-500 D490E): T1 sequence (P53985 1-500 D490E)
Method: as §3

IC50 (activated T-lymphocytes [1]) [nM] | IC50 (activated T-lymphocytes [2]) [nM] | EC50 (activated T-lymphocytes [3]) [nM] | effect on decrease in intracellular pH on addition of exogenous lactate (human MCT1) | SMILES | pIC50 (Splenic B-lymphocytes; Mus musculus, 8-mercaptoguanosine 100 μg/ml, partial inhibition, read-out: IA50, proliferative response to 8MG) | pIC50 (Splenic B-lymphocytes; Mus musculus, LPS 50 μg/ml, partial inhibition, read-out: IA50, proliferative response to LPS) | pIC50 (Splenic B-lymphocytes; goat anti mouse IgM 40 μg/ml, weak, read-out: IA50, proliferative response to goat anti-mouse IgM) | IC50 [4] [nM] | binding sites per cell (MDA-MB-231 cell line) [binding sites per cell] | Specific binding (cpm) Average ([5]; vector (2 ug)) [cpm] | Specific binding (cpm) Average ([5]; vector (20 ug)) [cpm] | Specific binding (cpm) Average (human MCT2; MCT2 (2 ug)) [cpm] | Specific binding (cpm) Average (human MCT2; MCT2 (20 ug)) [cpm] | Specific binding (cpm) Average (human MCT4; MCT4 (2 ug)) [cpm] | Specific binding (cpm) Average (human MCT4; MCT4 (20 ug)) [cpm] | Specific binding (cpm) Average (human MCT3; MCT3 (2 ug)) [cpm] | Specific binding (cpm) Average (human MCT3; MCT3 (20 ug)) [cpm] | Specific binding (cpm) Average (MCT1; MCT1 (2 ug)) [cpm] | Specific binding (cpm) Average (MCT1; MCT1 (20 ug)) [cpm]
0.794 | 1.35 | 0.55 | completely abolished | CC(C)Cc1nn(C)c(=O)c2c(SCCCO)n(Cc3cccc4ccccc34)cc12 [Ligand 2, 2,6-dihydro-7-[(3-hydroxypropyl)thio]-2-methyl-4-(2-methylpropyl)-6-(1-napthanlenylmethyl)-1H-pyrrolo[3,4-d]pyridazin-1-one] | 8.00 | 8.30 | < 7.00 | 0.38 |  |  |  |  |  |  |  |  |  |  | 
 |  |  |  | [3H]CC([3H])(C[3H])Cn1c(=O)n(C)c(=O)c2c(SCCCO)n(Cc3cccc4ccccc34)cc21 [Ligand C, 5-[(3-Hydroxypropyl)thio]-1-([2,3,3′-^3H]isobutyl)-3-methyl-6-(1-naphthalenylmethyl)-1H-pyrrolo[3,4-d]pyrimidine-2,4(3H,6H)-dione] |  |  |  |  | ~6000 | 0 | 0 | 593 | 213 | 81 | 0 | 0 | 40 | 3621 | 5553
